What was measured:
Format in all cases: in vivo
histamine [1] = test: rat dermal vascular permeability test (mediator release model), histamine challenge; settings: 100 mg/kg, histamine 20 ug/ml intradermal
Method: The furanone compounds listed in Tables 1A, 1B and 2 were used for anti-allergy treatment in the rat active anaphylaxis model and/or the rat dermal vascular permeability test (mediator release model). The results are given as the percent inhibition from the control.
In the rat dermal vascular permeability test, groups of ten male rats are intraperitoneally or perorally administered either the test compound, at a dosage of 100 mg/kg of rat weight as a 0.85% solution in saline, or the positive reference standard cyproheptadine (1 mg/kg) one hour prior to an intravenous injection of 1 ml of a 0.5% solution of Evan's blue dye into naive animals. Ten minutes later the animals are challenged by intradermally injecting 0.1 ml of a solution of either serotonin (1 ug/ml), histamine (20 ug/ml) or bradykinin (10 ug/ml) into separate sites on the back. Five minutes following challenge the animals are killed, the skin retracted, and the mean diameter of the blue wheal and flare reactions are determined. The percent inhibition of the wheal reaction is calculated as the difference in diameter between the saline control and drug treated groups divided by the control diameter times 100. Statistical analysis of the data is done using the poolt program.

serotonin = test: rat dermal vascular permeability test (mediator release model), serotonin challenge; settings: 100 mg/kg
bradykinin = test: rat dermal vascular permeability test (mediator release model), bradykinin challenge; settings: 100 mg/kg
edema = test: rat active anaphylaxis model (paw edema after bovine serum albumin challenge); settings: 100 mg/kg intraperitoneally; for Active Anaphylaxis % Inhibition: 1 h before challenge, paw volume 90 min post challenge
Method: In the rat active anaphylaxis model, groups consisting of 15-20 male rats are intraperitoneally sensitized on day zero with 500 ug of bovine serum albumin-absorbed alum admixed with 2×10^10 killed Bordatella pertussis vaccine organisms. […] The paw volume is measured using a mercury plethysmometer prior to drug administration and 90 minutes post antigenic challenge. The percent inhibition of edema is calculated as the difference in volume between the control and drug treated groups divided by the control volume times 100. The positive control drug, theophylline (90 mg/kg, po) is included in each assay. Statistical analysis of the data is done using the poolt program.

histamine [2] = test: rat dermal vascular permeability test (mediator release model), histamine challenge; settings: topical, 100 mg/kg
[3] = peroral, serotonin 1 ug/ml intradermal
[4] = intraperitoneal administration, serotonin 1 ug/ml intradermal
[5] = intraperitoneal administration, bradykinin 10 ug/ml intradermal

CCOC(=O)C1=C(N[C@@H]2C[C@H]2c2ccccc2)OCC1=O (relative stereo)
% Inhibition of Mediator Release, Histamine (histamine [1]; peroral): 35%
% Inhibition of Mediator Release, Serotonin (serotonin; [3]): 57%
% Inhibition of Mediator Release, Bradykinin (bradykinin; topical): 59%

CCOC(=O)C1=C(N[C@@H]2C[C@H]2c2ccc(Cl)cc2)OCC1=O (relative stereo)
% Inhibition of Mediator Release, Histamine (histamine [1]; peroral): 60%
% Inhibition of Mediator Release, Serotonin (serotonin; [3]): 51%
% Inhibition of Mediator Release, Bradykinin (bradykinin; topical): 76%

Cc1ccc([C@@H]2C[C@H]2NC2=C(C(=O)O)C(=O)CO2)cc1 (relative stereo)
% Inhibition of Mediator Release, Histamine (histamine [1]; peroral): 100%
Active Anaphylaxis % Inhibition (edema): 45%
% Inhibition of Mediator Release, Serotonin (serotonin; [3]): 100%
% Inhibition of Mediator Release, Bradykinin (bradykinin; topical): 100%

O=C(O)C1=C(N[C@@H]2C[C@H]2c2ccc(Cl)cc2)OCC1=O (relative stereo)
% Inhibition of Mediator Release, Histamine (histamine [1]; peroral): 56%
Active Anaphylaxis % Inhibition (edema): 6%
% Inhibition of Mediator Release, Serotonin (serotonin; [3]): 54%
% Inhibition of Mediator Release, Bradykinin (bradykinin; topical): 71%

O=C(O)C1=C(N[C@@H]2C[C@H]2c2ccccc2)OCC1=O (relative stereo)
Active Anaphylaxis % Inhibition (edema): 22%

CCOC(=O)C1=C(O)COC1=Nc1ccc(Br)cc1 [K C6 H4 Br--4 C2 H5]
% Inhibition of Mediator Release, Histamine (histamine [1]; intraperitoneal administration): 65%
Active Anaphylaxis % Inhibition (edema): 38%
% Inhibition of Mediator Release, Serotonin (serotonin; [4]): 46%
% Inhibition of Mediator Release, Bradykinin (bradykinin; [5]): 69%

CCOC(=O)C1=C(O)COC1=Nc1cccc(C)c1 [K C6 H4 CH3 --3 C2 H5]
% Inhibition of Mediator Release, Histamine (histamine [1]; intraperitoneal administration): 71%
% Inhibition of Mediator Release, Serotonin (serotonin; [4]): 75%
% Inhibition of Mediator Release, Bradykinin (bradykinin; [5]): 70%

CCOC(=O)C1=C(O)COC1=Nc1ccc(C(C)=O)cc1 [K C6 H4 COCH3 --4 C2 H5]
% Inhibition of Mediator Release, Histamine (histamine [1]; intraperitoneal administration): 88%
Active Anaphylaxis % Inhibition (edema): 56%
% Inhibition of Mediator Release, Serotonin (serotonin; [4]): 79%
% Inhibition of Mediator Release, Bradykinin (bradykinin; [5]): 86%

CCOC(=O)C1=C(O)COC1=Nc1cccc([N+](=O)[O-])c1 [K C6 H4 NO2 --3 C2 H5]
% Inhibition of Mediator Release, Histamine (histamine [1]; intraperitoneal administration): 49%
Active Anaphylaxis % Inhibition (edema): 37%
% Inhibition of Mediator Release, Serotonin (serotonin; [4]): 45%
% Inhibition of Mediator Release, Bradykinin (bradykinin; [5]): 67%

CCOC(=O)C1=C(O)COC1=Nc1ccccc1OC [K C6 H4 OCH3 --2 C2 H5]
Active Anaphylaxis % Inhibition (edema): 58%

CCOC(=O)C1=C(O)COC1=Nc1ccccc1 [K C6 H5 C2 H5, Potassium 2,5-dihydro-3-ethoxycarbonyl-2-(phenylimino)-4-furanyloxide]
% Inhibition of Mediator Release, Histamine (histamine [1]; intraperitoneal administration): 31%
Active Anaphylaxis % Inhibition (edema): 49%
% Inhibition of Mediator Release, Serotonin (serotonin; [4]): 42%
% Inhibition of Mediator Release, Bradykinin (bradykinin; [5]): 51%

COc1ccc(NC(=O)C2=C(Nc3ccc(OC)cc3)OCC2=O)cc1 [NH6 H4 OCH3 4 H H C6 H4 OCH3 4]
% Inhibition of Mediator Release, Serotonin (serotonin; topical): 13%
% Inhibition of Mediator Release, Bradykinin (bradykinin; topical): 39%
% Inhibition of Mediator Release, Histamine (histamine [2]): 8%

Cc1ccccc1NC(=O)C1=C(Nc2ccccc2C)OCC1=O [NHC6 H4 CH3 2 H H C6 H4 CH3 2]
% Inhibition of Mediator Release, Histamine (histamine [1]; peroral): 0%
% Inhibition of Mediator Release, Serotonin (serotonin; [3]): 9%
% Inhibition of Mediator Release, Bradykinin (bradykinin; topical): 7%

O=C1COC(Nc2ccc(Cl)cc2)=C1C(=O)Nc1ccc(Cl)cc1 [NHC6 H4 Cl4 H H C6 H4 Cl4]
% Inhibition of Mediator Release, Histamine (histamine [1]; peroral): 15%
% Inhibition of Mediator Release, Serotonin (serotonin; [3]): 14%
% Inhibition of Mediator Release, Bradykinin (bradykinin; topical): 44%

COc1ccccc1NC(=O)C1=C(Nc2ccccc2OC)OCC1=O [NHC6 H4 OCH3 2 H H C6 H4 OCH3 2]
% Inhibition of Mediator Release, Histamine (histamine [1]; peroral): 1%
% Inhibition of Mediator Release, Serotonin (serotonin; [3]): 18%
% Inhibition of Mediator Release, Bradykinin (bradykinin; topical): 39%

O=C1COC(Nc2ccccc2)=C1C(=O)Nc1ccccc1 [NHC6 H5 H H C6 H5, 4,5-Dihydro-4-oxo-N-phenyl-2-(phenylamino)-3-furancarboxamide]
Active Anaphylaxis % Inhibition (edema): 46%

CCOC(=O)C1=C(Nc2ccccc2)OC(C)(C)C1=O [OC2 H5 CH3 CH3 C6 H5, ethyl 4,5-dihydro-5,5-dimethyl-4-oxo-2-(phenylamino)-3-furancarboxylate]
Active Anaphylaxis % Inhibition (edema): 16%

CCOC(=O)C1=C(Nc2cccc(C(F)(F)F)c2)OCC1=O [OC2 H5 H H C6 H4 CF3 --3]
% Inhibition of Mediator Release, Histamine (histamine [1]; peroral): 4.1%
% Inhibition of Mediator Release, Serotonin (serotonin; [3]): 9.7%
% Inhibition of Mediator Release, Bradykinin (bradykinin; topical): 40%

CCOC(=O)C1=C(Nc2ccc(C(=O)OCC)cc2)OCC1=O [OC2 H5 H H C6 H4 CO2 C2 H5 --4, ethyl 2-[[4-(ethoxycarbonyl)phenyl]-amino]-4,5-dihydro-4-oxo-3-furancarboxylate]
% Inhibition of Mediator Release, Histamine (histamine [1]; peroral): 21%
% Inhibition of Mediator Release, Serotonin (serotonin; [3]): 18%
% Inhibition of Mediator Release, Bradykinin (bradykinin; topical): 21%

CCOC(=O)C1=C(Nc2ccc(Cl)cc2)OCC1=O [OC2 H5 H H C6 H4 Cl--4]
% Inhibition of Mediator Release, Histamine (histamine [1]; peroral): 3.3%
% Inhibition of Mediator Release, Serotonin (serotonin; [3]): 6.6%
% Inhibition of Mediator Release, Bradykinin (bradykinin; topical): 9.5%

CCOC(=O)C1=C(NC)OCC1=O [OC2 H5 H H CH3]
% Inhibition of Mediator Release, Histamine (histamine [1]; intraperitoneal administration): 50%
% Inhibition of Mediator Release, Serotonin (serotonin; [4]): 38%
% Inhibition of Mediator Release, Bradykinin (bradykinin; [5]): 25%

CC1(C)OC(Nc2ccccc2)=C(C(=O)O)C1=O [OH CH3 CH3 C6 H5]
Active Anaphylaxis % Inhibition (edema): 44%

CC1OC(Nc2ccccc2)=C(C(=O)O)C1=O (stereo not drawn) [OH H CH3 C6 H5]
% Inhibition of Mediator Release, Histamine (histamine [1]; intraperitoneal administration): 40%
Active Anaphylaxis % Inhibition (edema): 60%
% Inhibition of Mediator Release, Serotonin (serotonin; [4]): 37%
% Inhibition of Mediator Release, Bradykinin (bradykinin; [5]): 46%

O=C(O)C1=C(Nc2ccc(Br)cc2)OCC1=O [OH H H C6 H4 Br--4]
% Inhibition of Mediator Release, Histamine (histamine [1]; peroral): 45%
Active Anaphylaxis % Inhibition (edema): 27%
% Inhibition of Mediator Release, Serotonin (serotonin; [3]): 39%
% Inhibition of Mediator Release, Bradykinin (bradykinin; topical): 68%

O=C(O)C1=C(Nc2cccc(C(F)(F)F)c2)OCC1=O [OH H H C6 H4 CF3 --3]
% Inhibition of Mediator Release, Histamine (histamine [1]; peroral): 26%
Active Anaphylaxis % Inhibition (edema): 45%
% Inhibition of Mediator Release, Serotonin (serotonin; [3]): 40%
% Inhibition of Mediator Release, Bradykinin (bradykinin; topical): 54%

O=C(O)C1=C(Nc2ccc(C(=O)O)cc2)OCC1=O [OH H H C6 H4 CO2 H--4, 2-[(4-Carboxyphenyl)amino]-4,5-dihydro-4-oxo-3-furancarboxylic Acid]
% Inhibition of Mediator Release, Histamine (histamine [1]; peroral): 64%
Active Anaphylaxis % Inhibition (edema): 52%
% Inhibition of Mediator Release, Serotonin (serotonin; [3]): 63%
% Inhibition of Mediator Release, Bradykinin (bradykinin; topical): 64%

O=C(O)C1=C(Nc2cccc([N+](=O)[O-])c2)OCC1=O [OH H H C6 H4 NO2 --3]
% Inhibition of Mediator Release, Histamine (histamine [1]; peroral): 16%
Active Anaphylaxis % Inhibition (footnote 1: edema increased) (edema; edema increased): 39%
% Inhibition of Mediator Release, Serotonin (serotonin; [3]): 18%
% Inhibition of Mediator Release, Bradykinin (bradykinin; topical): 48%

COc1ccccc1NC1=C(C(=O)O)C(=O)CO1 [OH H H C6 H4 OCH3 --2]
% Inhibition of Mediator Release, Histamine (histamine [1]; peroral): 27%
Active Anaphylaxis % Inhibition (edema): 45%
% Inhibition of Mediator Release, Serotonin (serotonin; [3]): 30%
% Inhibition of Mediator Release, Bradykinin (bradykinin; topical): 38%

O=C([O-])C1=C(Nc2ccccc2)OCC1=O.[Na+] [O^- Na^+ H H C6 H5, 4,5-dihydro-4-oxo-2-phenylamino-3-furancarboxylic acid sodium salt]
Active Anaphylaxis % Inhibition (edema): 17%

Reference: US4845122A, “Anti-allergy treatment using 2-(substituted amino)-4,5-dihydro-4-oxo-3-furancarboxylic acids and derivatives thereof” (priority 1986, dated 1989)
